Some test systems named below: SK-MEL-5 melanoma; OVCAR-3 ovarian; HCT-15 colon; OVCAR-5 ovarian; LOX IMVI melanoma; ACHN renal; SK-MEL-2 melanoma; SF-539 CNS; UACC-257 melanoma; CAKI-1 renal; MDA-MB-231 breast.
Assay in all cases: growth of human tumour cells (NCI), 48 h

Consider 18 molecules from PubChem BioAssay (NCI).

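Grown in 96-well plates, cells were treated for 48 hours with each compound at five concentrations. Insufficient inhibition: endpoint recorded as highest concentration tested. TGI marks complete inhibition of growth.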

Take `COc1cccc(CCCNC(=O)Cc2ccccc2CO)c1`: the TGI in the assay with SK-MEL-5 melanoma, with OVCAR-3 ovarian, with HCT-15 colon, with OVCAR-5 ovarian, in the assay on LOX IMVI melanoma and in the assay with ACHN renal was greater than 100 µM throughout. Also, the TGI with SK-MEL-2 melanoma, with SF-539 CNS, with UACC-257 melanoma, in the assay on CAKI-1 renal and in the assay on MDA-MB-231 breast was greater than 100 µM each time.

As for `Cc1ccccc1Nc1nc2ccccc2nc1NS(=O)(=O)c1ccccc1`, the TGI in the assay on SK-MEL-5 melanoma, with OVCAR-3 ovarian, in the assay with HCT-15 colon, in the assay on OVCAR-5 ovarian, with LOX IMVI melanoma and in the assay on ACHN renal was greater than 100 µM in each case. Further, the TGI in the assay with SK-MEL-2 melanoma, in the assay on SF-539 CNS, in the assay on UACC-257 melanoma, with CAKI-1 renal and in the assay on MDA-MB-231 breast was greater than 100 µM throughout.

`COc1cc2c(cc1OC)C(=O)N(c1ccc(OCCN3CCCC3)cc1)C2=O`: the TGI in the assay with SK-MEL-5 melanoma, in the assay with OVCAR-3 ovarian, with HCT-15 colon, with OVCAR-5 ovarian, with LOX IMVI melanoma and with ACHN renal was greater than 100 µM each time. In addition, the TGI in the assay on SK-MEL-2 melanoma, in the assay on SF-539 CNS, with UACC-257 melanoma, in the assay on CAKI-1 renal and with MDA-MB-231 breast was greater than 100 µM in each case.

Consider `CC(C)[C@@H]1NC(=O)[C@@H]2N=C(O[C@H]2C)[C@H](C(C)C)NC(=O)C2N=C1O[C@H]2C`, for which the TGI in the assay on SK-MEL-5 melanoma, in the assay with OVCAR-3 ovarian, in the assay with HCT-15 colon, with OVCAR-5 ovarian, with LOX IMVI melanoma and in the assay on ACHN renal was greater than 100 µM each time. The TGI in the assay on SK-MEL-2 melanoma, in the assay with SF-539 CNS, in the assay on UACC-257 melanoma, with CAKI-1 renal and in the assay on MDA-MB-231 breast was greater than 100 µM in each case.

On to `CC(NNC(=O)c1ccncc1)c1ccc(Cl)cc1Cl` (stereo not drawn), for which the TGI in the assay with SK-MEL-5 melanoma, in the assay on OVCAR-3 ovarian, with HCT-15 colon, in the assay with OVCAR-5 ovarian, in the assay on LOX IMVI melanoma and in the assay with ACHN renal was greater than 100 µM in each case. In addition, the TGI in the assay on SK-MEL-2 melanoma, in the assay with SF-539 CNS, in the assay on UACC-257 melanoma, in the assay on CAKI-1 renal and with MDA-MB-231 breast was greater than 100 µM throughout.

Consider `COc1cccc(N=NN2CCCC2)c1`, for which the TGI in the assay with SK-MEL-5 melanoma, with OVCAR-3 ovarian, in the assay with HCT-15 colon, in the assay with OVCAR-5 ovarian, with LOX IMVI melanoma and in the assay on ACHN renal was greater than 100 µM in each case. The TGI in the assay with SK-MEL-2 melanoma, with SF-539 CNS, in the assay with UACC-257 melanoma, in the assay on CAKI-1 renal and in the assay with MDA-MB-231 breast was greater than 100 µM each time.

For `O=C1C2CC[C@@H]3C(=O)C(Cl)(Cl)[C@@H]3CCC2C1(Cl)Cl` (stereo partly drawn), the TGI in the assay on SK-MEL-5 melanoma, in the assay on OVCAR-3 ovarian, with HCT-15 colon, in the assay with OVCAR-5 ovarian, in the assay on LOX IMVI melanoma and in the assay on ACHN renal was greater than 100 µM throughout. In addition, the TGI was greater than 100 µM with SK-MEL-2 melanoma; greater than 90.5 µM in the assay on SF-539 CNS; greater than 100 µM with UACC-257 melanoma; greater than 100 µM with CAKI-1 renal; greater than 100 µM in the assay on MDA-MB-231 breast.

With `CCc1cc2c(c3c1CCCC3=O)CC1(C2)Cc2cc(CC)c3c(c2C1)C(=O)CCC3`, the TGI in the assay with SK-MEL-5 melanoma, in the assay with OVCAR-3 ovarian, in the assay with HCT-15 colon, in the assay on OVCAR-5 ovarian, with LOX IMVI melanoma and in the assay with ACHN renal was greater than 100 µM in each case. The TGI in the assay on SK-MEL-2 melanoma, in the assay on SF-539 CNS, in the assay with UACC-257 melanoma, in the assay on CAKI-1 renal and in the assay with MDA-MB-231 breast was greater than 100 µM in each case.

Turning to `c1ccc(-c2c(-c3[nH]c4ccccc4c3-c3ccccc3)[nH]c3ccccc23)cc1`, the TGI is 14.8 µM in the assay with SK-MEL-5 melanoma; 5.44 µM with OVCAR-3 ovarian; 14.3 µM with HCT-15 colon; 23.4 µM in the assay on OVCAR-5 ovarian; 4.06 µM in the assay with LOX IMVI melanoma; 11.6 µM in the assay on ACHN renal. Further, the TGI in the assay with SK-MEL-2 melanoma is 22.1 µM; in the assay with SF-539 CNS it was 21.3 µM; in the assay with UACC-257 melanoma, 25.1 µM; with CAKI-1 renal, 13.8 µM; with MDA-MB-231 breast it was 13.8 µM.

On to `C#CCOC(=O)C(=[N+]=[N-])C(=O)CC(C)C`, for which the TGI in the assay on SK-MEL-5 melanoma, with OVCAR-3 ovarian, in the assay with HCT-15 colon, in the assay on OVCAR-5 ovarian, in the assay with LOX IMVI melanoma and with ACHN renal was greater than 10 µM throughout. For the same molecule, the TGI in the assay on SK-MEL-2 melanoma, in the assay on SF-539 CNS, with UACC-257 melanoma, in the assay with CAKI-1 renal and in the assay with MDA-MB-231 breast was greater than 10 µM each time.

As to `COc1ccc(N=Nc2c(N)nn3c(SC)c(C#N)c(N)nc23)cc1`, the TGI stood at 34.7 µM with SK-MEL-5 melanoma; 7.1 µM with OVCAR-3 ovarian; 26.4 µM with HCT-15 colon; 34.8 µM with OVCAR-5 ovarian; 3.12 µM in the assay with LOX IMVI melanoma; 28 µM with ACHN renal. The TGI came out at 7.12 µM with SK-MEL-2 melanoma; 34.6 µM in the assay on SF-539 CNS; 20.8 µM in the assay with UACC-257 melanoma; 23.5 µM with CAKI-1 renal; 7.02 µM in the assay on MDA-MB-231 breast.

As for `C[n+]1c2ccccc2c(C(=O)Nc2ccc(S(=O)(=O)Nc3ncccn3)cc2)c2ccccc21`, the TGI with SK-MEL-5 melanoma, in the assay on OVCAR-3 ovarian, in the assay on HCT-15 colon, in the assay with OVCAR-5 ovarian, in the assay on LOX IMVI melanoma and with ACHN renal was greater than 100 µM throughout. Besides, the TGI in the assay on SK-MEL-2 melanoma, with SF-539 CNS, in the assay with UACC-257 melanoma, with CAKI-1 renal and in the assay on MDA-MB-231 breast was greater than 100 µM in each case.

On to `Clc1ccc(C2=NCON=C2c2ccc(Cl)cc2)cc1`, for which the TGI in the assay with SK-MEL-5 melanoma worked out at 30.3 µM; in the assay with OVCAR-3 ovarian, 46.6 µM; in the assay on HCT-15 colon, 50.6 µM; with OVCAR-5 ovarian, 90.7 µM; with LOX IMVI melanoma, 28.3 µM; in the assay on ACHN renal it was 54.9 µM. Also, the TGI in the assay with SK-MEL-2 melanoma came out at 46.1 µM; in the assay with SF-539 CNS it was 35.5 µM; in the assay on UACC-257 melanoma, 61.4 µM; in the assay on CAKI-1 renal it was 97.8 µM; in the assay on MDA-MB-231 breast it was 43.7 µM.

With `Cc1cc(=O)n2nc(CSc3nnc(Sc4cc(O)ccc4O)s3)sc2n1`, the TGI in the assay with SK-MEL-5 melanoma is greater than 100 µM; with OVCAR-3 ovarian it was greater than 100 µM; in the assay with HCT-15 colon it was greater than 100 µM; with OVCAR-5 ovarian, greater than 100 µM; in the assay on LOX IMVI melanoma it was 36.3 µM; in the assay on ACHN renal, greater than 100 µM. For the same molecule, the TGI in the assay with SK-MEL-2 melanoma is greater than 100 µM; in the assay on SF-539 CNS, greater than 100 µM; in the assay with UACC-257 melanoma, greater than 100 µM; in the assay on CAKI-1 renal, greater than 100 µM; in the assay on MDA-MB-231 breast it was 97.4 µM.

In the case of `COC1OC(C(=O)O)C2OC(C)(C)OC12` (stereo not drawn), the TGI in the assay on SK-MEL-5 melanoma, with OVCAR-3 ovarian, with HCT-15 colon, in the assay with OVCAR-5 ovarian, with LOX IMVI melanoma and with ACHN renal was greater than 100 µM throughout. Moreover, the TGI in the assay with SK-MEL-2 melanoma, with SF-539 CNS, in the assay with UACC-257 melanoma, in the assay with CAKI-1 renal and in the assay on MDA-MB-231 breast was greater than 100 µM throughout.

In the case of `CCOC(=O)C1C(c2ccc(OC)cc2)c2c([nH]n(-c3ccccc3)c2=O)CC1(C)O` (stereo not drawn), the TGI in the assay on SK-MEL-5 melanoma, in the assay with OVCAR-3 ovarian, with HCT-15 colon, with OVCAR-5 ovarian, with LOX IMVI melanoma and in the assay with ACHN renal was greater than 100 µM each time. In addition, the TGI in the assay on SK-MEL-2 melanoma, with SF-539 CNS, in the assay with UACC-257 melanoma, in the assay with CAKI-1 renal and in the assay on MDA-MB-231 breast was greater than 100 µM throughout.

With `O=C1C=C/C(=C/[C@H]2SSC=C[C@]23C=CC(=O)C3)C1`, the TGI in the assay with SK-MEL-5 melanoma is 38.9 µM; in the assay on OVCAR-3 ovarian, 85.6 µM; in the assay with HCT-15 colon it was 48.2 µM; with OVCAR-5 ovarian, 28.4 µM; in the assay with LOX IMVI melanoma it was greater than 48.7 µM; with ACHN renal, 55.5 µM. For the same molecule, the TGI in the assay on SK-MEL-2 melanoma was greater than 76.2 µM; with SF-539 CNS it was 61.3 µM; in the assay with UACC-257 melanoma, 99.8 µM; in the assay with CAKI-1 renal, 24.8 µM; with MDA-MB-231 breast it was greater than 83.1 µM.

As to `CC(C)=CCc1c2c(c(O)c3c(=O)c4c(oc13)-c1ccc(O)cc1OC4C=C(C)C)C=CC(C)(C)O2` (stereo not drawn), the TGI with SK-MEL-5 melanoma is 28.2 µM; in the assay with OVCAR-3 ovarian it was 25.2 µM; with HCT-15 colon, 24.8 µM; in the assay on OVCAR-5 ovarian, 35.9 µM; with LOX IMVI melanoma it was 23.8 µM; with ACHN renal, 24.7 µM. Also, the TGI in the assay on SK-MEL-2 melanoma came to 26.1 µM; in the assay with SF-539 CNS, 32.8 µM; with UACC-257 melanoma, 29.4 µM; in the assay on CAKI-1 renal, 34.4 µM; in the assay on MDA-MB-231 breast, 28 µM.
